Key:
[1] = test system: PAI-1; assay: PAI-1 protein expression in aged vascular endothelial cells (Western blot); format: cell-based, human; details: 50 μM, vs DMSO and young cells, FIG. 6
Description: (§1) In order to evaluate whether syringaresinol can restore the declined function of aged vascular cells to that of young vascular cells, the aging of vascular endothelial cells was induced by treating with 50 μM syringaresinol or DMSO as control in substantially the same manner as in Test Example 1. […] As a result, cardiovascular diseases such as arteriosclerosis can occur easily. The cells treated with syringaresinol or DMSO were washed with PBS and lysed with lysis buffer (Sigma), and the supernatant was recovered. Then, protein present in the supernatant was quantitated using Protein Dye Reagent™ (Bio-Rad). 100 μg of the obtained protein was fractionated by size by electrophoresing on 8% SDS-PAGE and transferred onto PVDF membrane (Bio-Rad) for 12 hours with 50 V. Then, the membrane was blocked for 1 hour with 5% non-fat milk and treated with anti-eNOS, anti-PAI-1 and anti-actin antibodies, as primary antibodies, and horse radish peroxidase (HRP)-conjugated anti-rabbit IgG (Amersham) as secondary antibody, and reacted using the enhanced chemiluminescence (ECL) kit (Amersham). The reacted PVDF membrane exposed to X-ray Fuji film and developed to investigate the protein expression level.

[2] = test system: eNOS; assay: eNOS protein expression in aged vascular endothelial cells (Western blot); format: cell-based, human; details: 50 μM, vs DMSO and young cells, FIG. 6
Description: as §1

[3] = test system: SIRT1 gene; assay: SIRT1 gene expression promoting effect in aged human vascular endothelial cells (RT-PCR); format: cell-based; details: aged human vascular endothelial cells (14 PDL to 40 PDL), 20, 50 or 100 μM every other day, vs DMSO; FIG. 2
Description: The SIRT1 gene expression promoting effect of syringaresinol in aged human vascular endothelial cells was evaluated as follows.
Human vascular endothelial cells purchased from Lonza (Walkersville, Md., USA) were cultured using the endothelial cell growth medium EGM-2 SingleQuots (Lonza) in a 5% CO2 incubator until 70% confluency. […] The population doubling level (PDL) was calculated according to the following equation for each generation until the cell growth was stopped. The PDL value is higher in aged cells. PDL=(Log10 Y−Log10 X)/Log10 2
Y: number of cells at the end of the generation
X: number of cells at the beginning of the generation
14 PDL cells were treated with syringaresinol dissolved in DMSO at a concentration of 20, 50 or 100 μM every other day while inducing aging to 40 PDL cells. The cells of a negative control group were treated with DMSO of 1/1000 of the volume of the medium. The cells treated with each sample were washed 2 times with cold PBS and RNA was extracted using TRIzol reagent (Invitrogen). cDNA was synthesized from the extracted RNA (1 μg/μL) using a reverse transcription system (Promega). Subsequently, the expression pattern of the SIRT1 and GAPDH genes was measured using the synthesized cDNA and predesigned primers and probes (Applied Biosystems; SIRT1, Hs01009006_m1; GAPDH, Hs99999905_m1). […]

[4] = test system: telomerase; assay: Telomerase activity in aged vascular endothelial cells (TeloTAGGG telomerase PCR ELISA Plus kit); format: cell-based, human; details: 50 μM, compared to cells treated only with DMSO, FIG. 5
Description: The aging of vascular endothelial cells was induced by treating with 50 μM syringaresinol or DMSO as control in substantially the same manner as in Test Example 1. The aged cells were washed with PBS and lysed using lysis buffer (Sigma), and the obtained protein was quantitated. Telomerase activity was evaluated using the TeloTAGGG telomerase PCR ELISA Plus kit (Roche Applied Science, Indianapolis, Ind., USA).

[5] = test system: aged vascular endothelial cells (SA-β-gal); assay: Aging marker SA-β-gal staining in aged vascular endothelial cells (Cellular Senescence Assay kit); format: cell-based, human; details: 50 μM, compared to cells treated only with DMSO
Description: The aging of vascular endothelial cells was induced by treating with 50 μM syringaresinol in substantially the same manner as in Test Example 1. The aged cells were washed with PBS and stained at 37° C. for 16 hours using a fixative and a stain provided together with the Cellular Senescence Assay kit (Cell Biolabs, Inc., San Diego, Calif., USA). Next day, the cells were washed with PBS, overlaid with 20% glycerol solution and observed under a microscope. The number of the cells stained green was counted and the activity of the aging marker SA-β-gal was determined.

COc1cc(C2OCC3C(c4cc(OC)c(O)c(OC)c4)OCC23)cc(OC)c1O (stereo not drawn) [syringaresinol] was tested, and the PAI-1 expression [1] was “decreased PAI-1 expression comparable to that of young cells”, the eNOS expression [2] was “increased eNOS expression comparable to that of young cells” and the SIRT1 gene expression [3] was “increases the decreased SIRT1 expression in aged vascular endothelial cells in a concentration-dependent manner”. The “increase of telomerase activity” value [4] was “about 30%”, the “number of green-stained (SA-β-gal) cells” value ([5]; FIG. 3 and 4) was “remarkably smaller number of green-stained cells” and the “decrease of SA-β-gal activity” value ([5]; FIG. 4) was roughly 50%.
